{"source": "ChEMBL document CHEMBL4507288", "about": "(2021)", "key": {"D(3) dopamine receptor": {"target": "D(3) dopamine receptor (Homo sapiens, UniProt P35462)", "sequence (P35462 whole entry)": "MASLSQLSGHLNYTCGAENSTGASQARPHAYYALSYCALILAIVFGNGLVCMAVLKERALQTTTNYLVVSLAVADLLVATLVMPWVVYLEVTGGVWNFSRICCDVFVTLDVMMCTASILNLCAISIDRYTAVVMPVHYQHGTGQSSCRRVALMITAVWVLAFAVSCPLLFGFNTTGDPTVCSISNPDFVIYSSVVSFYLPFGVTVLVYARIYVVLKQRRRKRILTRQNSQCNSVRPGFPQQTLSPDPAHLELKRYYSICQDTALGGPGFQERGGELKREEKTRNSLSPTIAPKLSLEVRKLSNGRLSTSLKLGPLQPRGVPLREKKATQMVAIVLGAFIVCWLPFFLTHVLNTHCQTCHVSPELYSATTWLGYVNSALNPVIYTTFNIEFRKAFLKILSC", "experiment": "GPCRScan assay: inhibition of D3", "parameters": "radioligand conc. used [nm] 0.5 – 1.8, parental cells HEKT"}, "[1]": {"target": "Ephrin type-A receptor 1 (Homo sapiens) (UniProt P21709)", "details": "Compound concentration 1000.0 nM"}, "[2]": {"system": "Receptor-type tyrosine-protein kinase FLT3 (Homo sapiens), P36888 [UNDEFINED MUTATION]", "details": "Compound concentration 1000.0 nM"}, "[3]": {"target": "Fibroblast growth factor receptor 1 (Homo sapiens) (UniProt P11362)", "details": "Compound concentration 1000.0 nM"}, "[4]": {"target": "Serine/threonine-protein kinase NLK (Homo sapiens) (UniProt Q9UBE8)", "details": "Compound concentration 1000.0 nM"}, "[5]": {"target": "Casein kinase II subunit alpha' (Homo sapiens) (UniProt P19784)", "sequence (P19784 whole entry, looked up)": "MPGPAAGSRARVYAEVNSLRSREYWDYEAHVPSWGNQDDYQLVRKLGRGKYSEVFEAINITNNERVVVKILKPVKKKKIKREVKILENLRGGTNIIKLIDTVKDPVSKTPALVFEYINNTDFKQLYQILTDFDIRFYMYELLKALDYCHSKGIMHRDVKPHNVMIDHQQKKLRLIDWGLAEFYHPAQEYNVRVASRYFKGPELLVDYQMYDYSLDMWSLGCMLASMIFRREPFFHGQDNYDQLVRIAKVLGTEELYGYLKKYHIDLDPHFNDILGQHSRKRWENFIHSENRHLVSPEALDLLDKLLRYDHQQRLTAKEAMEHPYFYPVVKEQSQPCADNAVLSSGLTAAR", "details": "Compound concentration 1000.0 nM"}, "[6]": {"target": "Calcium/calmodulin-dependent protein kinase kinase 2 (Homo sapiens) (UniProt Q96RR4)", "details": "Compound concentration 1000.0 nM"}, "[7]": {"target": "Ephrin type-A receptor 5 (Homo sapiens) (UniProt P54756)", "details": "Compound concentration 1000.0 nM"}, "[8]": {"target": "Testis-specific serine/threonine-protein kinase 3 (Homo sapiens) (UniProt Q96PN8)", "sequence (Q96PN8 whole entry)": "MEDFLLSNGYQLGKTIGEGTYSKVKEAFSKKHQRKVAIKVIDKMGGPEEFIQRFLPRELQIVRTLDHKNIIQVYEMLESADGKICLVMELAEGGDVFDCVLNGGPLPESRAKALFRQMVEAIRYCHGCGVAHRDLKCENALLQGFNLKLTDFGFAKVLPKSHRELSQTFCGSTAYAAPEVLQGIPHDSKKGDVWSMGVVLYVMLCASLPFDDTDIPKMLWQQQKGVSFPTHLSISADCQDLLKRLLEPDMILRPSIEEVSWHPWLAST", "details": "Compound concentration 1000.0 nM"}, "[9]": {"system": "Epidermal growth factor receptor (Homo sapiens), P00533 [G719C]", "details": "Compound concentration 1000.0 nM"}, "[10]": {"target": "Dual specificity tyrosine-phosphorylation-regulated kinase 1B (Homo sapiens) (UniProt Q9Y463)", "sequence (Q9Y463 whole entry, looked up)": "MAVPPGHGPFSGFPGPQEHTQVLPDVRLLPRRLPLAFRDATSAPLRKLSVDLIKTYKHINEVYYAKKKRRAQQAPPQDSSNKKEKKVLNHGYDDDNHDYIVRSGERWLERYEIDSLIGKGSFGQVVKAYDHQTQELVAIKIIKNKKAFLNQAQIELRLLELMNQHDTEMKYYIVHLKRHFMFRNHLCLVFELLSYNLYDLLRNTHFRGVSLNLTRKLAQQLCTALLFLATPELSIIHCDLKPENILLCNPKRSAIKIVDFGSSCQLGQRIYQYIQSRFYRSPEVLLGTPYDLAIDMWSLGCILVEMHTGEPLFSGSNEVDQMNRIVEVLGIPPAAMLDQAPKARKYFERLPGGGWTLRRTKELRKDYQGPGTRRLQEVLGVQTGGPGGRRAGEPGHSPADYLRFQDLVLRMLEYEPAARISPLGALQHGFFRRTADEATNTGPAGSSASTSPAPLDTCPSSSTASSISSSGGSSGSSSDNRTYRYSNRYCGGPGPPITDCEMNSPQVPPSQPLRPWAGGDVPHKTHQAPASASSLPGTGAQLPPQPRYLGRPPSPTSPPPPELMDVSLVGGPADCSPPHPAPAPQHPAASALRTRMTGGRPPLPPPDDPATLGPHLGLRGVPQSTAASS", "details": "Compound concentration 1000.0 nM"}, "[11]": {"target": "Dual specificity testis-specific protein kinase 1 (Homo sapiens) (UniProt Q15569)", "details": "Compound concentration 1000.0 nM"}, "[12]": {"target": "Serine/threonine-protein kinase SIK3 (Homo sapiens) (UniProt Q9Y2K2)", "details": "Compound concentration 1000.0 nM"}, "Rattus norvegicus": {"species_on_record": "Rattus norvegicus", "details": "Compound concentration 10.0 uM"}, "[13]": {"target": "Dual specificity tyrosine-phosphorylation-regulated kinase 1A (Homo sapiens) (UniProt Q13627)", "details": "Compound concentration 1000.0 nM"}, "[14]": {"target": "Tyrosine-protein kinase Lck (Homo sapiens) (UniProt P06239)", "details": "Compound concentration 1000.0 nM"}, "[15]": {"target": "Non-receptor tyrosine-protein kinase TNK1 (Homo sapiens) (UniProt Q13470)", "details": "Compound concentration 1000.0 nM"}, "[16]": {"target": "Ribosomal protein S6 kinase alpha-2 (Homo sapiens) (UniProt Q15349)", "details": "Compound concentration 1000.0 nM"}, "[17]": {"target": "Homeodomain-interacting protein kinase 3 (Homo sapiens) (UniProt Q9H422)", "details": "Compound concentration 1000.0 nM"}, "[18]": {"target": "Fibroblast growth factor receptor 2 (Homo sapiens) (UniProt P21802)", "details": "Compound concentration 1000.0 nM"}, "[19]": {"target": "Cyclin-dependent kinase 3 (Homo sapiens) (UniProt Q00526)", "sequence (Q00526 whole entry, looked up)": "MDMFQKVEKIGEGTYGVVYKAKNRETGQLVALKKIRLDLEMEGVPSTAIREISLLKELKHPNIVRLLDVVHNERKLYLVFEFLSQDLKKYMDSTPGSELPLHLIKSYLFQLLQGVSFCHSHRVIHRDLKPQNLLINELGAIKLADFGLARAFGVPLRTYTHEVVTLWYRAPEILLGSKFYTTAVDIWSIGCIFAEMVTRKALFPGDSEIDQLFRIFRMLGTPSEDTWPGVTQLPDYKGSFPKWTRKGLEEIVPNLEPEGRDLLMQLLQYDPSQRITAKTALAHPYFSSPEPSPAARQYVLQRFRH", "details": "Compound concentration 1000.0 nM"}, "[20]": {"target": "Macrophage colony-stimulating factor 1 receptor (Homo sapiens) (UniProt P07333)", "details": "Compound concentration 1000.0 nM"}, "[21]": {"target": "Tyrosine-protein kinase receptor UFO (Homo sapiens) (UniProt P30530)", "sequence (P30530 whole entry)": "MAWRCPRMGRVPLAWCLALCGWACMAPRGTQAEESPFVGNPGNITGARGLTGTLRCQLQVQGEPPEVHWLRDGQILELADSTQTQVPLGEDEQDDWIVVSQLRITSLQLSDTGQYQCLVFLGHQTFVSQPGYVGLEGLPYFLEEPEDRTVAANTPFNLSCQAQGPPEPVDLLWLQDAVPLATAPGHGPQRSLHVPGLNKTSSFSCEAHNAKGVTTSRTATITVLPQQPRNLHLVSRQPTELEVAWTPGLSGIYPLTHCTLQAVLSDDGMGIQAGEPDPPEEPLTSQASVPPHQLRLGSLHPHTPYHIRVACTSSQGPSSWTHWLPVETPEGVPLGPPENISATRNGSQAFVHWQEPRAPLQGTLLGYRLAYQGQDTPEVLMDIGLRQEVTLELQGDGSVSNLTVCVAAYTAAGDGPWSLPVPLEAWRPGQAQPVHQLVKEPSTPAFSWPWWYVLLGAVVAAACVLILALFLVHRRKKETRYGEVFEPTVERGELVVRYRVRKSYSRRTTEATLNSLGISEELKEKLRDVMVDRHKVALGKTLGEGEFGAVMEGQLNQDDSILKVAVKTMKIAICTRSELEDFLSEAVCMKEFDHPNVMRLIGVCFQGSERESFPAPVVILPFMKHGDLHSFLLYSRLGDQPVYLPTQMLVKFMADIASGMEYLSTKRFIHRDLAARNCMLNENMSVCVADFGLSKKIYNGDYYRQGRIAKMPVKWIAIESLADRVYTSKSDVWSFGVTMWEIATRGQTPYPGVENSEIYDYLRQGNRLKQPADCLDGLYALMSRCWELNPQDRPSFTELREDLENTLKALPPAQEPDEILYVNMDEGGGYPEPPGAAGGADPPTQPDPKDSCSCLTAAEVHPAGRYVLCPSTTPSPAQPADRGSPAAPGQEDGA", "details": "Compound concentration 1000.0 nM"}, "[22]": {"target": "Cyclin-dependent kinase 8 (Homo sapiens) (UniProt P49336)", "details": "Compound concentration 1000.0 nM"}, "[23]": {"system": "Phosphatidylinositol 4,5-bisphosphate 3-kinase catalytic subunit alpha isoform (Homo sapiens), P42336 [E545A]", "sequence (P42336 whole entry E545A, canonical isoform)": "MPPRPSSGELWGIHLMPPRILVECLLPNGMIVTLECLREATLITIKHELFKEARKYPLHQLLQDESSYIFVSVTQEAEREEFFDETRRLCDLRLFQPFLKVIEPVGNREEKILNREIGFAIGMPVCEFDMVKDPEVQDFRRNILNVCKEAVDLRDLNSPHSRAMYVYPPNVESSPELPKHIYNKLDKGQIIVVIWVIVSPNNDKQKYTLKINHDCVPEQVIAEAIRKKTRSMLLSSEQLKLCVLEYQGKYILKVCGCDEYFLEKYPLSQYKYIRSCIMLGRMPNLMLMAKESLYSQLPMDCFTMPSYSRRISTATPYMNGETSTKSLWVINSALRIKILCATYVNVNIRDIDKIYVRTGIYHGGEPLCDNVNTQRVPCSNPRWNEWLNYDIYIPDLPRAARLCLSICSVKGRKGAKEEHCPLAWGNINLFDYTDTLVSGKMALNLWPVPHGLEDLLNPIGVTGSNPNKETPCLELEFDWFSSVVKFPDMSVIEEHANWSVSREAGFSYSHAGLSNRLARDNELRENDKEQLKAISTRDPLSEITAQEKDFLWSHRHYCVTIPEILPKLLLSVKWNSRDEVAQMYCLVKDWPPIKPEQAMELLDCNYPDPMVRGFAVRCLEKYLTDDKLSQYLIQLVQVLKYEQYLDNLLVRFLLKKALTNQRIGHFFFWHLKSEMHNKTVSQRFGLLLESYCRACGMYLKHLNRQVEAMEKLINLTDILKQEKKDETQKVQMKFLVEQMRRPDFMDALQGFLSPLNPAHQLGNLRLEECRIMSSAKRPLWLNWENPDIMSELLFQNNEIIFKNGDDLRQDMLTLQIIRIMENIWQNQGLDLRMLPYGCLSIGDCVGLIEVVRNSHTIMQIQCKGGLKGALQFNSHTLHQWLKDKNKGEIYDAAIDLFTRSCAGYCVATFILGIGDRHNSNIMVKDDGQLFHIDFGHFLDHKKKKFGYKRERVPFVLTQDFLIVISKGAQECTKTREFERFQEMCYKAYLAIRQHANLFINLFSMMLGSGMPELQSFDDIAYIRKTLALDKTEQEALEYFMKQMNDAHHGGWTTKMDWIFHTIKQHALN", "details": "Compound concentration 1000.0 nM"}, "[24]": {"target": "Serine/threonine-protein kinase pim-3 (Homo sapiens) (UniProt Q86V86)", "details": "Compound concentration 1000.0 nM"}, "[25]": {"target": "Homeodomain-interacting protein kinase 1 (Homo sapiens) (UniProt Q86Z02)", "details": "Compound concentration 1000.0 nM"}, "[26]": {"target": "Protein kinase C eta type (Homo sapiens) (UniProt P24723)", "details": "Compound concentration 1000.0 nM"}, "[27]": {"target": "BMP-2-inducible protein kinase (Homo sapiens) (UniProt Q9NSY1)", "details": "Compound concentration 1000.0 nM"}, "[28]": {"system": "Tyrosine-protein kinase ABL1 (Homo sapiens), P00519 [Y253F]", "details": "Compound concentration 1000.0 nM"}, "[29]": {"target": "Tyrosine-protein kinase Fgr (Homo sapiens) (UniProt P09769)", "details": "Compound concentration 1000.0 nM"}, "[30]": {"system": "Tyrosine-protein kinase ABL1 (Homo sapiens), P00519 [M351T]", "details": "Compound concentration 1000.0 nM"}, "[31]": {"target": "Bone morphogenetic protein receptor type-1A (Homo sapiens) (UniProt P36894)", "details": "Compound concentration 1000.0 nM"}, "[32]": {"system": "Tyrosine-protein kinase ABL1 (Homo sapiens), P00519 [F317I]", "details": "Compound concentration 1000.0 nM"}, "[33]": {"target": "Protein kinase C delta type (Homo sapiens) (UniProt Q05655)", "details": "Compound concentration 1000.0 nM"}, "[34]": {"target": "Dual specificity mitogen-activated protein kinase kinase 4 (Homo sapiens) (UniProt P45985)", "details": "Compound concentration 1000.0 nM"}, "[35]": {"target": "Proto-oncogene tyrosine-protein kinase ROS (Homo sapiens) (UniProt P08922)", "details": "Compound concentration 1000.0 nM"}, "[36]": {"target": "Serine/threonine-protein kinase BRSK1 (Homo sapiens) (UniProt Q8TDC3)", "sequence (Q8TDC3 whole entry)": "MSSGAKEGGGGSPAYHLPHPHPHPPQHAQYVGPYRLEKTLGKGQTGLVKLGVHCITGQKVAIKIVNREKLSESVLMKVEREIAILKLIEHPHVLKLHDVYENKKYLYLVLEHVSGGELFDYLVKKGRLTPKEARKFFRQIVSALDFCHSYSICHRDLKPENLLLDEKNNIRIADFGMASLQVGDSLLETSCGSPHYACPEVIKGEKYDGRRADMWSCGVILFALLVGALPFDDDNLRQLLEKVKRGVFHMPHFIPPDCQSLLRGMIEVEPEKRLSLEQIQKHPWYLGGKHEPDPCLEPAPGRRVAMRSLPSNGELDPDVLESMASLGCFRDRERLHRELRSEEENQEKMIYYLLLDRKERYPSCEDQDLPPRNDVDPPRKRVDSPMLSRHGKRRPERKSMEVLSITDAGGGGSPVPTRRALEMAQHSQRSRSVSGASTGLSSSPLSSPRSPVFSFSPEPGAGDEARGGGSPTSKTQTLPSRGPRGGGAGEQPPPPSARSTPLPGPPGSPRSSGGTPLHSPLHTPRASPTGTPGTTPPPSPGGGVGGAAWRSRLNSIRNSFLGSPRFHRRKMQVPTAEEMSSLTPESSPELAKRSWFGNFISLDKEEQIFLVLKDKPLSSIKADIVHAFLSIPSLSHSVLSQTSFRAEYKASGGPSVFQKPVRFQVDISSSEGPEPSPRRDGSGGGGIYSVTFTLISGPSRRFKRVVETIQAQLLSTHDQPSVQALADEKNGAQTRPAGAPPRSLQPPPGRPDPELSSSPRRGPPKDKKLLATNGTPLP", "details": "Compound concentration 1000.0 nM"}, "[37]": {"target": "Serine/threonine-protein kinase LATS1 (Homo sapiens) (UniProt O95835)", "details": "Compound concentration 1000.0 nM"}, "[38]": {"system": "Tyrosine-protein kinase ABL1 (Homo sapiens), P00519 [F317L]", "details": "Compound concentration 1000.0 nM"}, "[39]": {"system": "Phosphatidylinositol 4,5-bisphosphate 3-kinase catalytic subunit alpha isoform (Homo sapiens), P42336 [I800L]", "details": "Compound concentration 1000.0 nM"}, "[40]": {"system": "Mast/stem cell growth factor receptor Kit (Homo sapiens), P10721 [V559D,T670I]", "details": "Compound concentration 1000.0 nM"}, "[41]": {"target": "Mitogen-activated protein kinase kinase kinase 5 (Homo sapiens) (UniProt Q99683)", "details": "Compound concentration 1000.0 nM"}, "[42]": {"target": "Hepatocyte growth factor receptor (Homo sapiens) (UniProt P08581)", "details": "Compound concentration 1000.0 nM"}, "[43]": {"target": "Dual specificity protein kinase CLK1 (Homo sapiens) (UniProt P49759)", "details": "Compound concentration 1000.0 nM"}}, "note": "pKi: −log10 of the molar value."}
{"compound": "CC(C)(C)OC(=O)N1CCCC1CNC1CCC(c2cc(F)ccc2F)(S(=O)(=O)c2ccc(Cl)cc2)CC1", "note": "(stereo not given) [GSI-NC]", "values": [{"measurement": "pKi", "setting": "D(3) dopamine receptor", "result": 6.15}]}
{"compound": "O=S(=O)(NC1CCC(c2cc(F)ccc2F)(S(=O)(=O)c2ccc(Cl)cc2)CC1)C(F)(F)F", "note": "(stereo not given) [MRK-560]", "values": [{"measurement": "residual activity", "setting": "[1]", "result": 100, "unit": "%"}, {"measurement": "residual activity", "setting": "[2]", "result": 100, "unit": "%"}, {"measurement": "residual activity", "setting": "[3]", "result": 100, "unit": "%"}, {"measurement": "residual activity", "setting": "[4]", "result": 100, "unit": "%"}, {"measurement": "residual activity", "setting": "[5]", "result": 99, "unit": "%"}, {"measurement": "residual activity", "setting": "[6]", "result": 100, "unit": "%"}, {"measurement": "residual activity", "setting": "[7]", "result": 100, "unit": "%"}, {"measurement": "residual activity", "setting": "[8]", "result": 88, "unit": "%"}, {"measurement": "residual activity", "setting": "[9]", "result": 100, "unit": "%"}, {"measurement": "residual activity", "setting": "[10]", "result": 100, "unit": "%"}, {"measurement": "residual activity", "setting": "[11]", "result": 100, "unit": "%"}, {"measurement": "residual activity", "setting": "[12]", "result": 100, "unit": "%"}, {"measurement": "inhibition", "setting": "Rattus norvegicus", "result": 37.2, "unit": "%"}, {"measurement": "residual activity", "setting": "[13]", "result": 78, "unit": "%"}, {"measurement": "residual activity", "setting": "[14]", "result": 100, "unit": "%"}, {"measurement": "residual activity", "setting": "[15]", "result": 98, "unit": "%"}, {"measurement": "residual activity", "setting": "[16]", "result": 95, "unit": "%"}, {"measurement": "residual activity", "setting": "[17]", "result": 100, "unit": "%"}, {"measurement": "residual activity", "setting": "[18]", "result": 84, "unit": "%"}, {"measurement": "residual activity", "setting": "[19]", "result": 100, "unit": "%"}, {"measurement": "residual activity", "setting": "[20]", "result": 100, "unit": "%"}, {"measurement": "residual activity", "setting": "[21]", "result": 100, "unit": "%"}, {"measurement": "residual activity", "setting": "[22]", "result": 100, "unit": "%"}, {"measurement": "residual activity", "setting": "[23]", "result": 95, "unit": "%"}, {"measurement": "residual activity", "setting": "[24]", "result": 100, "unit": "%"}, {"measurement": "residual activity", "setting": "[25]", "result": 100, "unit": "%"}, {"measurement": "residual activity", "setting": "[26]", "result": 99, "unit": "%"}, {"measurement": "residual activity", "setting": "[27]", "result": 92, "unit": "%"}, {"measurement": "residual activity", "setting": "[28]", "result": 100, "unit": "%"}, {"measurement": "residual activity", "setting": "[29]", "result": 99, "unit": "%"}, {"measurement": "residual activity", "setting": "[30]", "result": 100, "unit": "%"}, {"measurement": "residual activity", "setting": "[31]", "result": 100, "unit": "%"}, {"measurement": "residual activity", "setting": "[32]", "result": 84, "unit": "%"}, {"measurement": "residual activity", "setting": "[33]", "result": 100, "unit": "%"}, {"measurement": "residual activity", "setting": "[34]", "result": 76, "unit": "%"}, {"measurement": "residual activity", "setting": "[35]", "result": 100, "unit": "%"}, {"measurement": "residual activity", "setting": "[36]", "result": 92, "unit": "%"}, {"measurement": "residual activity", "setting": "[37]", "result": 100, "unit": "%"}, {"measurement": "residual activity", "setting": "[38]", "result": 90, "unit": "%"}, {"measurement": "residual activity", "setting": "[39]", "result": 98, "unit": "%"}, {"measurement": "residual activity", "setting": "[40]", "result": 100, "unit": "%"}, {"measurement": "residual activity", "setting": "[41]", "result": 80, "unit": "%"}, {"measurement": "residual activity", "setting": "[42]", "result": 100, "unit": "%"}, {"measurement": "residual activity", "setting": "[43]", "result": 78, "unit": "%"}]}
